Results reported in the NIST ThermoML archive (doi:10.1021/je900333c).

Assay: relative permittivity at zero frequency (dimensionless); mn = molality of the nth substance listed, in mol/kg
Settings: 101 kPa, Liquid, dielectric constant meter

NCC(=O)O [2-aminoacetic acid] + O
relative permittivity at zero frequency
Settings | 278.15 K | 283.15 K | 288.15 K | 293.15 K | 298.15 K | 303.15 K | 308.15 K | 313.15 K
m1 = 0.1 | 88.4 | 86.4 | 84.5 | 82.6 | 80.7 | 78.8 | 76.9 | 75
m1 = 0.15 | 89.5 | 87.5 | 85.6 | 83.6 | 81.7 | 79.7 | 77.8 | 75.8
m1 = 0.2 | 90.6 | 88.6 | 86.6 | 84.6 | 82.6 | 80.6 | 78.5 | 76.4
m1 = 0.25 | 91.6 | 89.6 | 87.6 | 85.6 | 83.5 | 81.4 | 79.2 | 77
m1 = 0.3 | 92.8 | 90.7 | 88.7 | 86.5 | 84.3 | 82.1 | 79.7 | 77.2
